Experimental data reported in patent publication US20240182513A1, “SEPARATION OF METAL IONS FROM A SAMPLE USING GLYCOLIPIDS” (ARIZONA BOARD OF REGENTS ON BEHALF OF THE UNIVERSITY OF …, priority 2021, published 2024).

How the values were obtained:
[1] = Example 2.1 rhamnolipid precipitation, filtration, centrifugation: lead; conditions: for Treatment 2: Rhamnolipid and Filtration Cf / Treatment 3: Rhamnolipid and Centrifugation Cc / Treatment 1: Rhamnolipid Only Cr: lead concentration after treatment; for Treatment 2: Rhamnolipid and Filtration (Rf) efficiency of removal / Treatment 3: Rhamnolipid and Centrifugation (Rc) efficiency of removal / Treatment 1: Rhamnolipid Only (Rr) efficiency of removal: lead
Procedure: (§1) Structural variants of synthetic glycolipids were used to show the effect of the number and length of the hydrophobic tail(s) on rhamnolipid as a chemical precipitant. […] Solutions (10 mM) were made using nanopure water (≥18 MΩ-cm) then adjusted to a pH of 6.9±0.05 with HNO3 and NaOH. These solutions were made in advance and stored in the cold room for up to one month. They were brought to room temperature before each experiment.
(§2) Three metals were tested for binding with rhamnolipid. Lead as […] (Fisher Scientific, Waltham, MA, 99% purity), was chosen to represent a metal with high rhamnolipid-metal conditional stability constant; lanthanum as La(NO3)3 6(H2O) (Sigma-Aldrich, St. Louis, MO, 99.99% purity) was chosen as a representative REE; and magnesium as Mg(NO3)2 6(H2O) (Sigma-Aldrich, St. Louis, MO, 99% purity) was chosen to represent a metal with a low rhamnolipid-metal conditional stability constant (Hogan et al., 2017). Metal solutions (5 mM) were made using nanopure water (≥18 MΩ-cm) in 20 ml glass scintillation vials. All solutions were used within 15 min to ensure minimal adsorption to the glass vial.
(§3) Three glycolipid-based treatments were evaluated to remove metal from solution: (1) the addition of glycolipid with no further treatment (gravitational precipitation), (2) the addition of a glycolipid followed by filtration or (3) the addition of a glycolipid followed by centrifugation. Each metal (Pb, La, and Mg) was evaluated separately with each of the glycolipid structures. For each experiment, a metal solution was mixed with a glycolipid solution in a 1.7 ml reaction tube at varying molar ratios of glycolipid to metal: 0:1 (glycolipid-free control), 2:1, 5:1, and 10:1. The reactions were mixed in the order of nanopure water (≥18 MΩ-cm), glycolipid solution (10 mM), then metal solution (5 mM). The metal and glycolipid solutions were continuously stirred as they were aliquoted into the reaction tubes. The experiment was performed in triplicate.
(§4) The reaction tubes were mixed overnight (16 to 24 h) and then three samples were collected from each tube to measure the effect of each of the three treatments: a glycolipid only treatment sample, a filtration treatment sample, and a centrifugation treatment sample. Briefly, for the glycolipid only treatment samples all tubes were vortexed for approximately 5 sec immediately before removing 0.1 ml into a dilution tube of 2% trace metal grade nitric acid (12 to 14 ml) to minimize the settling of particles. For the filtration samples each reaction tube was vortexed for 5 sec and then a 0.6 ml aliquot was collected with a 1 ml syringe. A GHP acrodisc disk filter (hydrophilic polypropylene membrane, 0.45 μm pore size, 25 mm disc diameter) from Pall Life Sciences (Port Washington, New York) was then placed onto the end of the syringe and the solution was pushed through the filter. The void space in the disk filter holds approximately 0.5 ml, therefore around 0.1 ml of filtrate was collected into a dilution tube. For the centrifugation sample, the remaining solution was centrifuged at 10,000 RCF for 15 min. Approximately 0.1 ml of the supernatant was aliquoted into a dilution tube. Following collection, all samples were taken for metal analysis using ICP-MS.

[2] = Example 2.1 rhamnolipid precipitation, filtration, centrifugation: lanthanum; conditions: for Treatment 2: Rhamnolipid and Filtration Cf / Treatment 3: Rhamnolipid and Centrifugation Cc / Treatment 1: Rhamnolipid Only Cr: lanthanum concentration after treatment; for Treatment 2: Rhamnolipid and Filtration (Rf) efficiency of removal / Treatment 1: Rhamnolipid Only (Rr) efficiency of removal / Treatment 3: Rhamnolipid and Centrifugation (Rc) efficiency of removal: lanthanum
Procedure: as §1, §2, §3, §4

[3] = Example 2.1 rhamnolipid precipitation, filtration, centrifugation: magnesium; conditions: for Treatment 2: Rhamnolipid and Filtration Cf / Treatment 3: Rhamnolipid and Centrifugation Cc / Treatment 1: Rhamnolipid Only Cr: magnesium concentration after treatment; for Treatment 1: Rhamnolipid Only (Rr) efficiency of removal / Treatment 2: Rhamnolipid and Filtration (Rf) efficiency of removal / Treatment 3: Rhamnolipid and Centrifugation (Rc) efficiency of removal: magnesium
Procedure: as §1, §2, §3, §4

[4] = molar ratio rhamnolipid:lead 2 to 1
[5] = molar ratio rhamnolipid:lanthanum 2 to 1
[6] = molar ratio rhamnolipid:magnesium 2 to 1

## CCCC(CC(=O)O)OC1O[C@@H](C)[C@H](O)[C@@H](O)[C@H]1O (stereo partly drawn) [Rha C6]
[1]; molar ratio 2 to 1
  Treatment 2: Rhamnolipid and Filtration Cf: 0.115 ± 0.022 mmol/L
  Treatment 3: Rhamnolipid and Centrifugation Cc: 0.313 ± 0.003 mmol/L
  Treatment 2: Rhamnolipid and Filtration (Rf) efficiency of removal: (64.0%)
  Treatment 3: Rhamnolipid and Centrifugation (Rc) efficiency of removal: (2.2%)
[1]; molar ratio 5 to 1
  Treatment 1: Rhamnolipid Only Cr: 0.329 ± 0.014 mmol/L
  Treatment 2: Rhamnolipid and Filtration Cf: 0.046 ± 0.017 mmol/L
  Treatment 3: Rhamnolipid and Centrifugation Cc: 0.322 ± 0.004 mmol/L
  Treatment 2: Rhamnolipid and Filtration (Rf) efficiency of removal: (85.8%)
[1]; molar ratio 10 to 1
  Treatment 1: Rhamnolipid Only Cr: 0.316 ± 0.008 mmol/L
  Treatment 2: Rhamnolipid and Filtration Cf: 0.119 ± 0.018 mmol/L
  Treatment 3: Rhamnolipid and Centrifugation Cc: 0.323 ± 0.005 mmol/L
  Treatment 1: Rhamnolipid Only (Rr) efficiency of removal: (1.4%)
  Treatment 2: Rhamnolipid and Filtration (Rf) efficiency of removal: (62.7%)
[1]; [4]
  Treatment 1: Rhamnolipid Only Cr: 0.323 ± 0.005 mmol/L
[2]; molar ratio 2 to 1
  Treatment 2: Rhamnolipid and Filtration Cf: 0.143 ± 0.062 mmol/L
  Treatment 3: Rhamnolipid and Centrifugation Cc: 0.324 ± 0.018 mmol/L
  Treatment 2: Rhamnolipid and Filtration (Rf) efficiency of removal: (51.8%)
[2]; molar ratio 5 to 1
  Treatment 1: Rhamnolipid Only Cr: 0.282 ± 0.026 mmol/L
  Treatment 2: Rhamnolipid and Filtration Cf: 0.106 ± 0.026 mmol/L
  Treatment 3: Rhamnolipid and Centrifugation Cc: 0.320 ± 0.024 mmol/L
  Treatment 1: Rhamnolipid Only (Rr) efficiency of removal: (5.2%)
  Treatment 2: Rhamnolipid and Filtration (Rf) efficiency of removal: (64.4%)
[2]; molar ratio 10 to 1
  Treatment 1: Rhamnolipid Only Cr: 0.332 ± 0.040 mmol/L
  Treatment 2: Rhamnolipid and Filtration Cf: 0.114 ± 0.064 mmol/L
  Treatment 3: Rhamnolipid and Centrifugation Cc: 0.294 ± 0.010 mmol/L
  Treatment 2: Rhamnolipid and Filtration (Rf) efficiency of removal: (61.6%)
  Treatment 3: Rhamnolipid and Centrifugation (Rc) efficiency of removal: (1.1%)
[2]; [5]
  Treatment 1: Rhamnolipid Only Cr: 0.325 ± 0.026 mmol/L
[3]; molar ratio 2 to 1
  Treatment 2: Rhamnolipid and Filtration Cf: 0.202 ± 0.016 mmol/L
  Treatment 3: Rhamnolipid and Centrifugation Cc: 0.265 ± 0.010 mmol/L
  Treatment 1: Rhamnolipid Only (Rr) efficiency of removal: (7.6%)
  Treatment 2: Rhamnolipid and Filtration (Rf) efficiency of removal: (24.5%)
  Treatment 3: Rhamnolipid and Centrifugation (Rc) efficiency of removal: (0.9%)
[3]; molar ratio 5 to 1
  Treatment 1: Rhamnolipid Only Cr: 0.248 ± 0.013 mmol/L
  Treatment 2: Rhamnolipid and Filtration Cf: 0.178 ± 0.020 mmol/L
  Treatment 3: Rhamnolipid and Centrifugation Cc: 0.255 ± 0.001 mmol/L
  Treatment 1: Rhamnolipid Only (Rr) efficiency of removal: (7.3%)
  Treatment 2: Rhamnolipid and Filtration (Rf) efficiency of removal: (33.4%)
  Treatment 3: Rhamnolipid and Centrifugation (Rc) efficiency of removal: (4.9%)
[3]; molar ratio 10 to 1
  Treatment 1: Rhamnolipid Only Cr: 0.258 ± 0.011 mmol/L
  Treatment 2: Rhamnolipid and Filtration Cf: 0.165 ± 0.001 mmol/L
  Treatment 3: Rhamnolipid and Centrifugation Cc: 0.272 ± 0.016 mmol/L
  Treatment 1: Rhamnolipid Only (Rr) efficiency of removal: (3.6%)
  Treatment 2: Rhamnolipid and Filtration (Rf) efficiency of removal: (38.2%)
[3]; [6]
  Treatment 1: Rhamnolipid Only Cr: 0.247 ± 0.014 mmol/L

## CCCCCCCC(CC(=O)O)OC1O[C@@H](C)[C@H](O)[C@@H](O)[C@H]1O (stereo partly drawn) [Rha C10]
[1]; molar ratio 2 to 1
  Treatment 3: Rhamnolipid and Centrifugation Cc: 0.320 ± 0.045 mmol/L
  Treatment 1: Rhamnolipid Only (Rr) efficiency of removal: (2.7%)
  Treatment 2: Rhamnolipid and Filtration (Rf) efficiency of removal: (88.8%)
  Treatment 3: Rhamnolipid and Centrifugation (Rc) efficiency of removal: (2.5%)
[1]; molar ratio 5 to 1
  Treatment 1: Rhamnolipid Only Cr: 0.293 ± 0.006 mmol/L
  Treatment 2: Rhamnolipid and Filtration Cf: 0.028 ± 0.031 mmol/L
  Treatment 3: Rhamnolipid and Centrifugation Cc: 0.288 ± 0.002 mmol/L
  Treatment 1: Rhamnolipid Only (Rr) efficiency of removal: (10.7%)
  Treatment 2: Rhamnolipid and Filtration (Rf) efficiency of removal: (91.6%)
  Treatment 3: Rhamnolipid and Centrifugation (Rc) efficiency of removal: (12.2%)
[1]; molar ratio 10 to 1
  Treatment 1: Rhamnolipid Only Cr: 0.232 ± 0.009 mmol/L
  Treatment 2: Rhamnolipid and Filtration Cf: 0.001 ± 0.000 mmol/L
  Treatment 3: Rhamnolipid and Centrifugation Cc: 0.231 ± 0.003 mmol/L
  Treatment 1: Rhamnolipid Only (Rr) efficiency of removal: (29.3%)
  Treatment 2: Rhamnolipid and Filtration (Rf) efficiency of removal: (99.8%)
  Treatment 3: Rhamnolipid and Centrifugation (Rc) efficiency of removal: (29.7%)
[1]; [4]
  Treatment 1: Rhamnolipid Only Cr: 0.320 ± 0.012 mmol/L
[2]; molar ratio 2 to 1
  Treatment 2: Rhamnolipid and Filtration Cf: 0.096 ± 0.025 mmol/L
  Treatment 3: Rhamnolipid and Centrifugation Cc: 0.228 ± 0.013 mmol/L
  Treatment 2: Rhamnolipid and Filtration (Rf) efficiency of removal: (65.7%)
  Treatment 3: Rhamnolipid and Centrifugation (Rc) efficiency of removal: (18.6%)
[2]; molar ratio 5 to 1
  Treatment 1: Rhamnolipid Only Cr: 0.246 ± 0.016 mmol/L
  Treatment 2: Rhamnolipid and Filtration Cf: 0.015 ± 0.010 mmol/L
  Treatment 3: Rhamnolipid and Centrifugation Cc: 0.088 ± 0.003 mmol/L
  Treatment 1: Rhamnolipid Only (Rr) efficiency of removal: (12.3%)
  Treatment 2: Rhamnolipid and Filtration (Rf) efficiency of removal: (94.6%)
  Treatment 3: Rhamnolipid and Centrifugation (Rc) efficiency of removal: (68.7%)
[2]; molar ratio 10 to 1
  Treatment 1: Rhamnolipid Only Cr: 0.190 ± 0.004 mmol/L
  Treatment 2: Rhamnolipid and Filtration Cf: 0.022 ± 0.028 mmol/L
  Treatment 3: Rhamnolipid and Centrifugation Cc: 0.051 ± 0.010 mmol/L
  Treatment 1: Rhamnolipid Only (Rr) efficiency of removal: (32.2%)
  Treatment 2: Rhamnolipid and Filtration (Rf) efficiency of removal: (92.1%)
  Treatment 3: Rhamnolipid and Centrifugation (Rc) efficiency of removal: (81.7%)
[2]; [5]
  Treatment 1: Rhamnolipid Only Cr: 0.282 ± 0.009 mmol/L
[3]; molar ratio 2 to 1
  Treatment 2: Rhamnolipid and Filtration Cf: 0.328 ± 0.036 mmol/L
  Treatment 3: Rhamnolipid and Centrifugation Cc: 0.497 ± 0.014 mmol/L
  Treatment 1: Rhamnolipid Only (Rr) efficiency of removal: (3.1%)
  Treatment 2: Rhamnolipid and Filtration (Rf) efficiency of removal: (34.6%)
  Treatment 3: Rhamnolipid and Centrifugation (Rc) efficiency of removal: (0.8%)
[3]; molar ratio 5 to 1
  Treatment 1: Rhamnolipid Only Cr: 0.492 ± 0.007 mmol/L
  Treatment 2: Rhamnolipid and Filtration Cf: 0.283 ± 0.059 mmol/L
  Treatment 3: Rhamnolipid and Centrifugation Cc: 0.500 ± 0.008 mmol/L
  Treatment 1: Rhamnolipid Only (Rr) efficiency of removal: (1.8%)
  Treatment 2: Rhamnolipid and Filtration (Rf) efficiency of removal: (43.6%)
  Treatment 3: Rhamnolipid and Centrifugation (Rc) efficiency of removal: (0.2%)
[3]; molar ratio 10 to 1
  Treatment 1: Rhamnolipid Only Cr: 0.503 ± 0.004 mmol/L
  Treatment 2: Rhamnolipid and Filtration Cf: 0.317 ± 0.073 mmol/L
  Treatment 3: Rhamnolipid and Centrifugation Cc: 0.490 ± 0.004 mmol/L
  Treatment 2: Rhamnolipid and Filtration (Rf) efficiency of removal: (36.7%)
  Treatment 3: Rhamnolipid and Centrifugation (Rc) efficiency of removal: (2.2%)
[3]; [6]
  Treatment 1: Rhamnolipid Only Cr: 0.486 ± 0.021 mmol/L
